# Experimental data reported in PubChem BioAssay (NCI).
#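 1) Cells in 96-well plates. 2) Compound, 48 h, 5 concentrations. 3) Linear interpolation between surrounding doses. 4) Unreached endpoint = highest concentration. Abbreviation: GI50, concentration required for 50% inhibition of growth. The concentration for full growth arrest is given as TGI.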
# Experiments:
# Assay in all cases: NCI anticancer screen, dose series, 48 h
# HOP-62 NSCLC = system: HOP-62 NSCLC
# MOLT-4 leukemia = system: MOLT-4 leukemia
# ACHN renal = system: ACHN renal
# KM12 colon = system: KM12 colon
# LOX IMVI melanoma = system: LOX IMVI melanoma
# SNB-75 CNS = system: SNB-75 CNS
# SF-295 CNS = system: SF-295 CNS
# SK-MEL-5 melanoma = system: SK-MEL-5 melanoma
SMILES,GI50 (HOP-62 NSCLC) [nM],TGI (HOP-62 NSCLC) [µM],GI50 (MOLT-4 leukemia) [nM],TGI (MOLT-4 leukemia) [µM],GI50 (ACHN renal) [µM],TGI (ACHN renal) [µM],GI50 (KM12 colon) [nM],TGI (KM12 colon) [µM],GI50 (LOX IMVI melanoma) [nM],TGI (LOX IMVI melanoma) [µM],GI50 (SNB-75 CNS) [nM],TGI (SNB-75 CNS) [µM],GI50 (SF-295 CNS) [nM],TGI (SF-295 CNS) [µM],GI50 (SK-MEL-5 melanoma) [nM],TGI (SK-MEL-5 melanoma) [µM]
Cc1csc(Nc2nc(-c3cccc(Br)c3)nc(C(Cl)(Cl)Cl)n2)n1,2210,> 28.7,> 40900,> 100,0.475,2.97,1580,4.82,> 100000,> 100,1360,> 27.9,2170,> 100,> 100000,> 100
CC(CC(=O)O)C(C(=O)O)C(=O)O (centres undefined),,> 100,,> 100,,> 100,,> 100,,> 100,,> 100,,> 100,,> 100
C1CSCCSCCS1,,> 100,,> 100,,,,> 100,,> 100,,> 100,,> 100,,> 100
O=C(CC(O)(C(F)(F)F)C(F)(F)F)c1cc(CC(=O)C(O)(C(F)(F)F)C(F)(F)F)cc(CC(=O)C(O)(C(F)(F)F)C(F)(F)F)c1,,3.29,,> 10,,> 6.02,,2.96,,2.81,,6.73,,4.47,,3.04
COc1cc(C2c3cc4c(cc3C(O)C(CO)C2CO)OCO4)cc(OC)c1OC (centres undefined),1470,> 100,1590,> 100,8.09,> 100,494,> 47,656,> 100,594,> 100,219,0.468,636,> 72
CS(=O)(=O)CCCn1c(=O)c(Oc2ccc(F)cc2F)cc2cnc(NC3CCOCC3)nc21,> 25000,> 25,> 25000,> 25,> 25,> 25,> 25000,> 25,> 25000,> 25,> 25000,> 25,> 25000,> 25,> 25000,> 25
Nc1nccc2c1ccn2-c1ccc(NC(=O)c2ccc(N3CCOCC3)c(C(F)(F)F)c2)cc1,342,1.73,318,,0.928,16.3,557,8.5,331,1.48,246,1.38,204,0.515,944,2.28
CC(C)=CCc1cc(O)cc2c1OC(C=C(C)C)C1=C2C(=O)C2=C(NCCS2(=O)=O)C1=O (centres undefined),3010,5.94,2230,7.19,3.18,10.6,4290,> 16.7,2040,5,2530,4.86,,,751,2.88
CCOc1ccc2nc(S/C(=C/C=C(C#N)C#N)c3ccc(C)cc3)sc2c1,44900,> 100,3030,8.5,18.4,36.9,35900,> 100,9870,23.9,,,22800,60.8,22100,57.4
